Source: US8557800B2, “Sphingosine kinase inhibitors” (Apogee Biotechnology Corporation, priority 2005, dated 2013)
Several values for one entry are separate records, joined by “and”; a condition that tells them apart may be missing. Equal entries are not always repeated. Where two headings read alike, the source gives them in different places.

Experiments:
recombinant human SK [1] = assay: Inhibition of recombinant human SK, LC/MS/MS assay; assay type: biochemical; details: 6 μg/ml compound
Summary of the method: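 Enzyme incubated with unlabeled sphingosine and ATP (1 mM, as in the radiometric format) for 30 min, then stopped and extracted with acetonitrile. S1P quantified by C8 reverse-phase HPLC–MS/MS against C17 sphingosine and C17 S1P internal standards using calibration curves.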

[2] = tested on: MCF-10A non-transformed human breast epithelial cells; assay: Cytotoxicity, SRB binding assay; assay type: cell-based; details: inhibition of cell proliferation, 48 h, read-out: MCF-10A IC50
Summary of the method: (§1)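 Cells exposed to varying compound doses for 48 h, then survival measured by sulforhodamine B staining. IC50 is the concentration giving 50% proliferation inhibition, in μM, as mean±sd of replicate trials.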

[3] = tested on: MCF-7 human breast adenocarcinoma cells; assay: Cytotoxicity, SRB binding assay; assay type: cell-based; details: MCF7, inhibition of cell proliferation, 48 h, read-out: MCF-7 IC50
Summary of the method: as §1

1025LU (melanoma) = assay: Human tumor cell line panel, sulforhodamine B; assay type: cell-based; details: 48 hours, mean ± sd
A-498 (kidney) = assay: Human tumor cell line panel, sulforhodamine B; assay type: cell-based; details: A498, 48 hours, mean ± sd
Caco-2 (colon) = assay: Human tumor cell line panel, sulforhodamine B; assay type: cell-based; details: 48 hours, mean ± sd
DU145 (prostate) = assay: Human tumor cell line panel, sulforhodamine B; assay type: cell-based; details: DU-145, 48 hours, mean ± sd
Hep-G2 (liver) = assay: Human tumor cell line panel, sulforhodamine B; assay type: cell-based; details: HepG2, 48 hours, mean ± sd
HT-29 (colon) = assay: Human tumor cell line panel, sulforhodamine B; assay type: cell-based; details: 48 hours, mean ± sd
MCF-7 (breast, ER+) = assay: Human tumor cell line panel, sulforhodamine B; assay type: cell-based; details: MCF7, 48 hours, mean ± sd
MDA-MB-231 (breast, ER−) = assay: Human tumor cell line panel, sulforhodamine B; assay type: cell-based; details: 48 hours, mean ± sd
Panc-1 (pancreas) = assay: Human tumor cell line panel, sulforhodamine B; assay type: cell-based; details: 48 hours, mean ± sd
SK-OV-3 (ovary) = assay: Human tumor cell line panel, sulforhodamine B; assay type: cell-based; details: 48 hours, mean ± sd
T24 (bladder) = assay: Human tumor cell line panel, sulforhodamine B; assay type: cell-based; details: 48 hours, mean ± sd
[4] = Oral pharmacokinetics in mice (PEG400); assay type: in vivo; details: mouse, blood, 100 mg/kg oral gavage in PEG400, female Swiss-Webster mice
Method: Oral pharmacokinetic studies were performed on Compounds 62 and 57. Each compound was dissolved in PEG400 and administered to female Swiss-Webster mice at a dose of 100 mg/kg by oral gavage. Mice were anesthetized and blood was removed via cardiac puncture at 5 minutes, 30 minutes, 1, 2, and 8 hours. Concentrations of the test compounds were determined using liquid-liquid extraction, appropriate internal standards and reverse phase HPLC with UV detection. Control blood samples were run to identify compound-specific peaks. Pharmacokinetic parameters were calculated using the WINNONLIN analysis software package (Pharsight). Non-compartmental and compartmental models were tested, with the results shown in Table 7 derived from the best fit equations.

[5] = tested on: mouse JC mammary adenocarcimona cell line growing subcutaneously in Balb/c mice
Method: The antitumor activity of the representative SK inhibitors were evaluated using a syngeneic tumor model that uses the mouse JC mammary adenocarcimona cell line growing subcutaneously in immunocompetent Balb/c mice (Lee et al., 2003, Oncol Res 14: 49).
In FIG. 1, Balb/c mice, 6-8 weeks old, were injected subcutaneously with 10^6 JC cells suspended in phosphate-buffered saline. The SK inhibitors Compounds 62 and 57 were dissolved in PEG400 and administered to mice every-other day at a dose of 100 mg/kg. Body weights and tumor volumes were monitored daily. In FIG. 1, tumor growth is expressed as the tumor volume relative to day 1 for each animal.

physchem = details: aqueous with cosolvent or surfactant or cyclodextrin
recombinant human SK [6] = assay: Recombinant human SK assay with [3H]sphingosine; assay type: biochemical; details: positive control
Method: An assay for identifying inhibitors of recombinant human SK has been established (French et al., 2003, Cancer Res 63: 5962). cDNA for human SK was subcloned into a pGEX bacterial expression vector, which results in expression of the enzyme as a fusion protein with glutathione-S-transferase, and the fusion protein is then purified on a column of immobilized glutathione. SK activity is measured by incubation of the recombinant SK with [^3H]sphingosine and 1 mM ATP under defined conditions, followed by extraction of the assay mixture with chloroform:methanol under basic conditions. […] Radioactivity in aliquots of the aqueous phase is then quantified as a measure of [^3H]S1P formation. There is a low background level of partitioning of [^3H]sphingosine into the aqueous phase, and addition of the recombinant SK greatly increases the formation of [^3H]S1P.

SMILES: CN1CCCC1CCNC(=O)C12CC3CC(C1)CC(c1ccc(Cl)cc1)(C3)C2 (centres unmarked) [Compound 57, 3-(4-Chloro-phenyl)-adamantane-1-carboxylic acid [2-(1-methyl-pyrrolidin-2-yl)-ethyl]-amide]
- Recombinant SK (% inhibition) (recombinant human SK [1]): 30%
- IC50 [2]: 8 µM
- IC50 [3]: 6 µM
- IC50 (1025LU (melanoma)): 7.2 ± 0.8 µM
- IC50 (A-498 (kidney)): 8 ± 3.5 µM
- IC50 (Caco-2 (colon)): 3.2 ± 2 µM
- IC50 (DU145 (prostate)): 8.7 ± 3.3 µM
- IC50 (Hep-G2 (liver)): 5 ± 1.8 µM
- IC50 (HT-29 (colon)): 9.6 ± 4 µM
- IC50 (MCF-7 (breast, ER+)): 12.1 ± 3.1 µM
- IC50 (MDA-MB-231 (breast, ER−)): 12.5 ± 2.5 µM
- IC50 (Panc-1 (pancreas)): 14.1 ± 6.3 µM
- IC50 (SK-OV-3 (ovary)): 9.2 ± 2.8 µM
- IC50 (T24 (bladder)): 12.7 ± 2.8 µM
- Cmax [4]: 3.8 µM
- Tmax [4]: 2 h
- half-life [4]: 19.3 h
- AUC(0-inf) ([4]; read-out: AUC0→∞ (μM * h)): 111 µM·h
- AUC(0-inf) ([4]; read-out: AUC0→∞ (μg * h/mL)): 45000 ng·h/mL
- inhibition of tumor growth relative to controls ([5]; 100 mg/kg oral every-other day in PEG400): 78%
- In vivo activity ([5]; JC tumor model, intraperitoneal (ip) or oral (po) administration): active - po
- solubility (physchem): ≥ 15000 µg/mL and 30000 µM to 40000 µM

SMILES: CCCCCCCCCCCCC/C=C/[C@@H](O)[C@H](CO)N(C)C [DMS, D-erythro-N,N-dimethylsphingosine]
- concentration that completely inhibits SK activity (recombinant human SK [6]): above 25 μM
